The values that follow come from ChEMBL document CHEMBL1909046, “DrugMatrix in vitro pharmacology data”.

One data set has as its target Cytochrome P450 2C9 (Homo sapiens, UniProt P11712). To be noted: bti-tn-5b1-4. Further: in other assays of this panel Not Active means under 50% inhibition at 10 µM.
Data set [1] deals with Aldo-keto reductase family 1 member B1 (Rattus norvegicus, UniProt P07943). Nature of the data set: biochemical. In kind it is tissue-based, Lens of camera-type eye.
The target in the next data set is T1, Adenosine receptor A3 (Homo sapiens, UniProt P0DMS8).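 Further: radioligand binding assay with AB-MECA serving as the labeled ligand; in other assays of this panel Not Active means under 50% inhibition at 10 µM.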
T1 sequence (P0DMS8 whole entry): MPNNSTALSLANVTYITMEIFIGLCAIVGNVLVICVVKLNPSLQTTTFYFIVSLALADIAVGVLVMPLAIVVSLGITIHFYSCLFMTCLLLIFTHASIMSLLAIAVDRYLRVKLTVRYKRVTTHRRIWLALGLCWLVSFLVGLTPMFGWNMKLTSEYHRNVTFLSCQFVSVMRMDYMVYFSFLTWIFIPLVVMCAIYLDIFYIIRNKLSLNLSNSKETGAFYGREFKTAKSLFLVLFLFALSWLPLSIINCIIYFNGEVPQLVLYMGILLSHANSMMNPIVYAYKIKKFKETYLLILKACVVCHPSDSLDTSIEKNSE
In kind it is cell membranes, CHO-K1, Membrane. Particulars: for Ki: read-out: Ki.

Data set [2] can be described thus: DRUGMATRIX: Calcium Channel Type L, Phenylalkylamine radioligand binding (ligand: [3H] (-)-Desmethoxyverapamil (D-888)). In kind it is cell membranes, Rattus norvegicus, Wistar, Brain, Membrane. Particulars: Not Active = under 50% inhibition at 10 µM.
For data set [3], the target named is Beta-3 adrenergic receptor (Homo sapiens, UniProt P13945). Nature of the data set: DRUGMATRIX: Adrenergic beta3 radioligand binding (ligand: [125I] Cyanopindolol). It is filed as cell membranes, HEK293, Membrane. To be noted: Not Active = under 50% inhibition at 10 µM.
Beta-3 adrenergic receptor, sequence (P13945 whole entry): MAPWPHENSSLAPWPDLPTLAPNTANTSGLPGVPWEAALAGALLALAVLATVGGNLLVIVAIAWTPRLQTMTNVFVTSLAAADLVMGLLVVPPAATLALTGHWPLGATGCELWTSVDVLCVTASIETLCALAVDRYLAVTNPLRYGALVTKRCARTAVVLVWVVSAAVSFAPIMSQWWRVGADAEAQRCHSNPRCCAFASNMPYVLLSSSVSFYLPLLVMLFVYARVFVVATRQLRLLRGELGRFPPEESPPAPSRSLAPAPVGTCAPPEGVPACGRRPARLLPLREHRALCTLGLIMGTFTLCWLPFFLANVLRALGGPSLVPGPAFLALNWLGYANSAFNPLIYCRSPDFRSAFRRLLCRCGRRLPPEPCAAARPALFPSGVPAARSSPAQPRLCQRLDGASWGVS
The next data set deals with T2, Cytochrome P450 1A2 (Homo sapiens, UniProt P05177).
T2 sequence (P05177 whole entry): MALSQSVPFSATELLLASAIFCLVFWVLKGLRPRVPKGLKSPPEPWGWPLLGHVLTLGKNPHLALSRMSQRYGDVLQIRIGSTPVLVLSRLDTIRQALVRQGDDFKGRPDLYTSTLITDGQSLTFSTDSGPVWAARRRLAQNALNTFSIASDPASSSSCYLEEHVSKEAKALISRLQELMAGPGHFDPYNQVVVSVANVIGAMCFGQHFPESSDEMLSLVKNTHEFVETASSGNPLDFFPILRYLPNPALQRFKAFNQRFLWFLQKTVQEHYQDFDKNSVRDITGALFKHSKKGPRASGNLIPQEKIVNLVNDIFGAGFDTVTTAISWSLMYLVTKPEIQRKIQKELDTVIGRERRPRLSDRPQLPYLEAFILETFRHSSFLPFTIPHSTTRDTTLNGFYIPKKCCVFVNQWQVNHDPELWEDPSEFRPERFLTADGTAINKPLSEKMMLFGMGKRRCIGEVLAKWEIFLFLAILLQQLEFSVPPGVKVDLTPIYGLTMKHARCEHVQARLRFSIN
To be noted: bti-tn-5b1-4.

Cytochrome P450 2C9, sequence (P11712 whole entry): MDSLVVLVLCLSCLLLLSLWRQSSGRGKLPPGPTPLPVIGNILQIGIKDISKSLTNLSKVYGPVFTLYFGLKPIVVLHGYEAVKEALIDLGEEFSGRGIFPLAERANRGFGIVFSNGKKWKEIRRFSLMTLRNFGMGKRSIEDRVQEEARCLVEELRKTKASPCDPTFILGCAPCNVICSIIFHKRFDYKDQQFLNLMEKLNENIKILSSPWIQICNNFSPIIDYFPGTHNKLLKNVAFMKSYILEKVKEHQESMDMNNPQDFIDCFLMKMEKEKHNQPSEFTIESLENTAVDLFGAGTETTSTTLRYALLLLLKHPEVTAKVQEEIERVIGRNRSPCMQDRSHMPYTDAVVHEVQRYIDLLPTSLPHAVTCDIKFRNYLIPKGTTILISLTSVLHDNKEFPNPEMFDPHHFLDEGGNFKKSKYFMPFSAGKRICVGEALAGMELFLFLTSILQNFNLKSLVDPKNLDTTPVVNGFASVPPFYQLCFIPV

In the case of `Cn1ccnc1S` [METHIMAZOLE], the half-maximal inhibitory concentration (IC50) result (on Cytochrome P450 2C9; in data set [1]; at Adenosine receptor A3 (cho-k1); in data set [2]; in data set [3] (hek293)) was “Not Active” throughout. Moreover, the Ki result (at Cytochrome P450 2C9; in data set [2]) was “Not Active” in each case.
As to `CN1CCN(CCCN2c3ccccc3Sc3ccc(Cl)cc32)CC1` [PROCHLORPERAZINE], the IC50 entry (on Cytochrome P450 2C9; in data set [1]; at Adenosine receptor A3 (cho-k1); in data set [3] (hek293)) was “Not Active” each time. For the same compound, at Cytochrome P450 2C9, the Ki entry is “Not Active”.
Regarding `Nc1nc2ccc(OC(F)(F)F)cc2s1` [RILUZOLE], the 50% inhibitory concentration (IC50) result (in data set [1]; against Adenosine receptor A3 (cho-k1); in data set [2]; in data set [3] (hek293)) was “Not Active” throughout. Moreover, the Ki entry in data set [2] is listed as “Not Active”.
For `Cc1c(C)c2c(c(C)c1O)CCC(C)(COc1ccc(CC3SC(=O)NC3=O)cc1)O2` (stereo unspecified) [TROGLITAZONE], the IC50 in data set [1] (read-out: IC50) was 2.04 µM; at Cytochrome P450 1A2 it was “Not Active”; at Adenosine receptor A3 (read-out: IC50), 5.21 µM; in data set [2], “Not Active”; in data set [3] (hek293), “Not Active”. Further, the Ki entry on Cytochrome P450 1A2 is “Not Active”; at Adenosine receptor A3 it was 2.94 µM; in data set [2], “Not Active”.
With `N[C@@H](Cc1cc(I)c(Oc2ccc(O)c(I)c2)c(I)c1)C(=O)O` [LIOTHYRONINE], the half-maximal inhibitory concentration (IC50) entry (in data set [1]; against Adenosine receptor A3 (cho-k1); in data set [3] (hek293)) was “Not Active” each time.
Take `OCCN(CCO)c1nc(N2CCCCC2)c2nc(N(CCO)CCO)nc(N3CCCCC3)c2n1` [DIPYRIDAMOLE]: the IC50 entry (in data set [1]; on Adenosine receptor A3 (cho-k1); in data set [2]; in data set [3] (hek293)) was “Not Active” each time. Also, the Ki entry in data set [2] is recorded as “Not Active”.
`CSc1ccc(/C=C2/C(C)=C(CC(=O)O)c3cc(F)ccc32)cc1` [SULINDAC SULFIDE]: the IC50 result against Cytochrome P450 2C9 is “Not Active”; in data set [1] (read-out: IC50) it was 0.084 µM; on Adenosine receptor A3 (read-out: IC50), 7.23 µM; in data set [2], “Not Active”; in data set [3] (hek293) it was “Not Active”. The values for the Ki entry (at Cytochrome P450 2C9; at Adenosine receptor A3; in data set [2]) were “Not Active”, 4.09 µM and “Not Active”, respectively.
`CCCCc1oc2ccccc2c1C(=O)c1cc(I)c(OCCN(CC)CC)c(I)c1` [AMIODARONE]: the IC50 result in data set [1] is recorded as “Not Active”.
With `NC[C@H]1CC[C@H](C(=O)O)CC1` [TRANEXAMIC ACID], the IC50 result (in data set [1]; against Cytochrome P450 1A2; against Adenosine receptor A3 (cho-k1); in data set [2]; in data set [3] (hek293)) was “Not Active” each time. In addition, the Ki entry (at Cytochrome P450 1A2; in data set [2]) was “Not Active” each time.
As for `CCOC(=O)N1CCC(=C2c3ccc(Cl)cc3CCc3cccnc32)CC1` [LORATADINE], the IC50 entry (in data set [1]; against Adenosine receptor A3 (cho-k1); in data set [2]; in data set [3] (hek293)) was “Not Active” each time. For the same compound, the inhibition constant (Ki) result in data set [2] is recorded as “Not Active”.
`CC(C)N1CCN(c2ccc(OCC3COC(Cn4cncn4)(c4ccc(Cl)cc4Cl)O3)cc2)CC1` (stereo unspecified) [TERCONAZOLE]: the IC50 result is “Not Active” on Cytochrome P450 2C9; “Not Active” in data set [1]; “Not Active” on Cytochrome P450 1A2; “Not Active” at Adenosine receptor A3 (cho-k1); 3.46 µM in data set [2] (read-out: IC50). Further, the Ki result on Cytochrome P450 2C9 was “Not Active”; on Cytochrome P450 1A2, “Not Active”; in data set [2] (read-out: Ki), 3.36 µM.
Take `CC/C(=C(\c1ccccc1)c1ccc(OCCN(C)C)cc1)c1ccccc1` [TAMOXIFEN]: the concentration for half-maximal inhibition (IC50) result is “Not Active” in data set [1], “Not Active” at Cytochrome P450 1A2, 3.7 µM at Adenosine receptor A3 (read-out: IC50) and 7.7 µM in data set [3] (read-out: IC50). Also, the Ki result at Cytochrome P450 1A2 is “Not Active”; at Adenosine receptor A3 it was 2.09 µM; in data set [3] (read-out: Ki), 5.78 µM.
As for `CO[C@H]1/C=C/O[C@@]2(C)Oc3c(C)c(O)c4c(O)c(c(/C=N/N5CCN(C)CC5)c(O)c4c3C2=O)NC(=O)/C(C)=C\C=C\[C@H](C)[C@H](O)[C@@H](C)[C@@H](O)[C@@H](C)[C@H](OC(C)=O)[C@@H]1C` [RIFAMPIN], the half-inhibitory concentration (IC50) result (in data set [1]; against Cytochrome P450 1A2; against Adenosine receptor A3 (cho-k1); in data set [2]; in data set [3] (hek293)) was “Not Active” in each case. The inhibitory constant (Ki) result (at Cytochrome P450 1A2; in data set [2]) was “Not Active” in each case.

Broadly, the IC50 is the concentration at which inhibition is half-maximal. One may read the Ki as a dissociation constant, usually derived from enzyme kinetics or from competition with a known ligand.
